# Test results taken from patent publication US7396645B1, “Cholestasis signature” (priority 2002, dated 2008).
# Like-named read-outs stand apart in the source and are kept apart here. Marks after values point to notes of the source that are not given here.
# Columns and labels:
# [1] = tested on: Cholestasis Signature
# Procedure: (§1) After determination of the MTD and FED for a compound, each compound was dissolved in a vehicle for administration on day 1 of the study (additional daily doses were stored as frozen aliquots from this initial formulation). Each compound was administered to three individual male Sprague-Dawley rats for each of the two doses (MTD and FED) for one of four different times (0.25 day, 1 day, 3 days, and 5 days), yielding a total of up to 24 animals per compound study. Vehicle choice was based on solubility of the compound, effect of food on adsorption, and the vehicles used in the literature reports examined during the FED selection investigations, described above. Generally, the route and vehicle in which the FED was defined are used. When there was a choice of routes and vehicles, oral routes were chosen over injection routes. Many compounds, especially oncolytics, are only administerable intravenously. In such cases, the compound was administered as an intravenous formulation into the tail vein. Orally administered compounds were given dissolved in either water, 1% carboxymethycellulose (CMC) or corn oil. Intravenously and intraperitoneally administered compounds were given in 0.9% saline. Subcutaneously administered compounds were given in corn oil. Animal body weights were determined at 1 day and, where appropriate, at 4 days, before necropsy, and clinical observations were made on a daily basis. Control animals were dosed with vehicle only. Three male animals were used for each dose and time combination used for the compound treatment.
# (§2) Tissue Harvest and Handling: After the allocated treatment time, the tissues from the animals were harvested. […] All the tissues collected were divided to provide samples for histopathological analyses, and the remainder of each tissue was then snap-frozen. […] The parameters were measured using a Hitachi-911 clinical chemistry analysis instrument according to the manufacturer's instructions. The following blood constituents were measured: Blood Urea Nitrogen (BUN), Creatinine (CRE), Glucose (GLU), Alanine Transaminase (ALT), Aspartate Aminotrans-ferase (AST), Alkaline Phosphatase (ALP), Total Bilirubin (TBI), Sodium (SOD), Potassium (POT), Chloride (CHL), Phosphorus (PHO), Total Protein (TPR), Albumin (ALB), Cholesterol (CHO), Creatine Phosphokinase (CPK), Lactate Dehydrogenase (LDH), Carbon Dioxide (CO2), Uric Acid (UA), and Lipase. […] The parameters were measured using a Baker 9000 blood cell analysis instrument according to the manufactures instructions. The following blood constituents were measured: Leukocyte count (WBC), Differential Leukocyte counts, Erythrocyte count (RBC), Hemoglobin concentration (HGB), Hematocrit (HCT), Mean Corpuscular Volume (MCV), Mean Corpuscular Hemoglobin (MCH), Mean Corpuscular Hemoglobin Concentration (MCC), Thrombocyte Count (PLC). Histopathology: Histopathological analyses of hematoxylin and eosin-stained tissue sections were performed and peer-reviewed by board-certified (Diplomate, American College of Veterinary Pathologists) veterinary pathologists. Preparation of Enriched mRNA: Punch Biopsies were Taken from the Frozen Tissues and were completely homogenized before being processed using the MagNA Pure robot. (Roche Diagnostics Corp., Indianapolis, Ind.) in combination with the MagNA Pure LC RNA Isolation kit II (Roche Diagnostics Corp). The amount of lysis buffer was adjusted to allow 1 ml per 50 mg for liver tissue, or 1 ml per 80 mg for all other tissues. After complete homogenization and before loading of the samples into the 32-well MagNA Pure plate, the samples were syringed 5-6 times using a 20-gauge 3-ml syringe to ensure a smooth solution for robotic processing. Tissue sample processing was performed in duplicate wells (loading 150 μl of homogenized sample and 150 μl of additional lysis buffer to each well) of the MagNA Pure LC, which is programmed to extract mRNA using oligo-dT selection technology into a final elution volume of 100 μl.
# [2] = tested on: livers of rats
# Procedure: as §1, §2
# [3] = tested on: male Sprague-Dawley rats; conditions: rat, in vivo, po
# Description: Compound dosing was based on the acute dose LD50s recorded in published reference or literature sources. […] The MTD (maximum tolerated dose) was then selected as the dose at which the animals […] 5-10% body weight during the 5-day range finding study. […] In addition, the clinical observations must show no or mild clinical signs during the whole of the range-finding study. At the next highest dose, signs and symptoms of adverse effects and exceeding those of the MTD should be seen to occur. Should these criteria not be met, the range-finding study is repeated using a modified dose range.
# as §1
# Tissue Harvest and Handling: After the allocated treatment time, the tissues from the animals were harvested. […] All the tissues collected were divided to provide samples for histopathological analyses, and the remainder of each tissue was then snap-frozen. […] The parameters were measured using a Hitachi-911 clinical chemistry analysis instrument according to the manufacturer's instructions. The following blood constituents were measured: Blood Urea Nitrogen (BUN), Creatinine (CRE), Glucose (GLU), Alanine Transaminase (ALT), Aspartate Aminotrans-ferase (AST), Alkaline Phosphatase (ALP), Total Bilirubin (TBI), Sodium (SOD), Potassium (POT), Chloride (CHL), Phosphorus (PHO), Total Protein (TPR), Albumin (ALB), Cholesterol (CHO), Creatine Phosphokinase (CPK), Lactate Dehydrogenase (LDH), Carbon Dioxide (CO2), Uric Acid (UA), and Lipase. […] The parameters were measured using a Baker 9000 blood cell analysis instrument according to the manufactures instructions. The following blood constituents were measured: Leukocyte count (WBC), Differential Leukocyte counts, Erythrocyte count (RBC), Hemoglobin concentration (HGB), Hematocrit (HCT), Mean Corpuscular Volume (MCV), Mean Corpuscular Hemoglobin (MCH), Mean Corpuscular Hemoglobin Concentration (MCC), Thrombocyte Count (PLC). Histopathology: Histopathological analyses of hematoxylin and eosin-stained tissue sections were performed and peer-reviewed by board-certified (Diplomate, American College of Veterinary Pathologists) veterinary pathologists.
# [4] = rat liver expression data vs Cholestasis Signature, maximum score of training treatments normalised to 100, dose and time not given
structure (smiles),measurement,setting,value
Cc1cnc(NC(=O)C2=C(O)c3ccccc3S(=O)(=O)N2C)s1 [MELOXICAM],Sequence Projection Score (SPS),"[1]; rat, in vivo",31*
"CC/C(=C(/CC)c1ccc(O)cc1)c1ccc(O)cc1 [DIETHYLSTILBESTROL, 3,4-bis-(4-hydroxyphenyl)-3-hexene]",increased hepatocyte enlargement and increased eosinophilic granular cytoplasm,"[2]; rat, in vivo",mild to severe
same,nuclear/cytoplasmic condensation (apoptosis) and/or necrosis in liver,"[2]; rat, in vivo",mild to moderate
same,Sequence Projection Score (SPS),"[1]; rat, in vivo",34*
same,raised serum levels of ALP and TBI compared with vehicle-treated control animals,[3],at least 2 fold
same,Fold change in serum alkaline phosphatase,[3]; 300 mg/kg,2.0 fold
same,Fold change in serum alkaline phosphatase and total bilirubin,[3]; 300 mg/kg,11.5 fold
same,Fold change in serum total bilirubin,[3]; 300 mg/kg,5.8 fold
Oc1c(Cl)cc(Cl)cc1Sc1cc(Cl)cc(Cl)c1O [BITHIONOL],Sequence Projection Score (SPS),"[1]; rat, in vivo",23*
COc1ccc2c(c1)c(CC(=O)O)c(C)n2C(=O)c1ccc(Cl)cc1 [INDOMETHACIN],Sequence Projection Score (SPS),"[1]; rat, in vivo",52*
"Clc1ccccc1C(c1ccccc1)(c1ccccc1)n1ccnc1 [CLOTRIMAZOLE, 1-(o-chloro-α,α-diphenylbenzyl)imidazole]",nuclear/cytoplasmic condensation (apoptosis) and/or necrosis in liver,"[2]; rat, in vivo",mild to moderate
same,steatosis,"[2]; rat, in vivo",moderate to very severe
same,Sequence Projection Score (SPS),"[1]; rat, in vivo",33*
same,raised serum levels of ALP and TBI compared with vehicle-treated control animals,[3],at least 2 fold
same,Fold change in serum alkaline phosphatase,[3]; 178 mg/kg,1.4 fold
same,Fold change in serum alkaline phosphatase and total bilirubin,[3]; 178 mg/kg,2.9 fold
same,Fold change in serum total bilirubin,[3]; 178 mg/kg,2.0 fold
CC#C[C@]1(O)CC[C@H]2[C@@H]3CCC4=CC(=O)CCC4=C3[C@@H](c3ccc(N(C)C)cc3)C[C@@]21C [MIFEPRISTONE],Sequence Projection Score (SPS),"[1]; rat, in vivo",39*
CN(Cc1cnc2nc(N)nc(N)c2n1)c1ccc(C(=O)N[C@@H](CCC(=O)O)C(=O)O)cc1 [METHOTREXATE],Sequence Projection Score (SPS),"[1]; rat, in vivo",17
"CN(C)C=O [N,N-DIMETHYLFORMAMIDE]",Sequence Projection Score (SPS),[1]; [4],27*
Nc1nc2nc[nH]c2c(=S)[nH]1 [THIOGUANINE],Sequence Projection Score (SPS),"[1]; rat, in vivo",19
C[C@]12CC[C@@H]3c4ccc(O)cc4CC[C@H]3[C@@H]1CC[C@@H]2O [BETA ESTRADIOL],Sequence Projection Score (SPS),"[1]; rat, in vivo",26*
C#C[C@]1(OC(C)=O)CC[C@H]2[C@@H]3CCC4=CC(=O)CC[C@@H]4[C@H]3CC[C@@]21C [NORETHINDRONE ACETATE],Sequence Projection Score (SPS),"[1]; rat, in vivo",23*
"Clc1ccc(COC(Cn2ccnc2)c2ccc(Cl)cc2Cl)c(Cl)c1 (stereo not drawn) [MICONAZOLE, 1-[2,4-dichloro-β-(2,4-dichlorobenzyloxy)phenethyl]imidazole nitrate]",increased hepatocyte enlargement and increased eosinophilic granular cytoplasm,"[2]; rat liver histopathology, training-set treatments",mild to severe
same,Sequence Projection Score (SPS),[1]; [4],100**
C#C[C@]1(O)CC[C@H]2[C@@H]3CCc4cc(O)ccc4[C@H]3CC[C@@]21C [ETHINYLESTRADIOL],Sequence Projection Score (SPS),"[1]; rat, in vivo",61*
CC(C)n1c(/C=C/C(O)CC(O)CC(=O)O)c(-c2ccc(F)cc2)c2ccccc21 (stereo not drawn) [FLUVASTATIN],Sequence Projection Score (SPS),"[1]; rat, in vivo",67*
CC(C)OC(=O)C(C)(C)Oc1ccc(C(=O)c2ccc(Cl)cc2)cc1 [FENOFIBRATE],Sequence Projection Score (SPS),"[1]; rat, in vivo",43*
COCc1c(C(C)C)nc(C(C)C)c(/C=C/[C@@H](O)C[C@@H](O)CC(=O)O)c1-c1ccc(F)cc1 [CERIVASTATIN],Sequence Projection Score (SPS),"[1]; rat, in vivo",36*
"CC(C)c1c(C(=O)Nc2ccccc2)c(-c2ccccc2)c(-c2ccc(F)cc2)n1CC[C@@H](O)C[C@@H](O)CC(=O)O (relative stereo) [ATORVASTATIN, (R—(R*,R*))-2-(4-fluorophenyl)-β,δ-dihydroxy-5-(1-methylethyl)-3-phenyl-4-((phenylamino)carbonyl)-1H-pyrrole-1-heptanoic acid]",Sequence Projection Score (SPS),"[1]; rat, in vivo",62*
same,raised serum levels of ALP and TBI compared with vehicle-treated control animals,[3],at least 2 fold
CCOC(=O)C(C)(C)Oc1ccc(Cl)cc1 [CLOFIBRATE],Sequence Projection Score (SPS),"[1]; rat, in vivo",22
CC(C)(Oc1ccc(CCNC(=O)c2ccc(Cl)cc2)cc1)C(=O)O [BEZAFIBRATE],Sequence Projection Score (SPS),"[1]; rat, in vivo",42*
CC1=C(CC(=O)O)c2cc(F)ccc2/C1=C\c1ccc([S+](C)[O-])cc1 (stereo not drawn),Sequence Projection Score (SPS),"[1]; rat, in vivo",45*
OC(Cn1cncn1)(Cn1cncn1)c1ccc(F)cc1F [FLUCONAZOLE],Sequence Projection Score (SPS),"[1]; rat, in vivo",63*
CCO [ETHANOL],steatosis,"[2]; rat, in vivo",moderate to very severe
same,raised serum levels of ALP and TBI compared with vehicle-treated control animals,[3],at least 2 fold
same,Fold change in serum alkaline phosphatase,[3]; 3000 mg/kg,1.5 fold
same,Fold change in serum alkaline phosphatase and total bilirubin,[3]; 3000 mg/kg,3.1 fold
same,Fold change in serum total bilirubin,[3]; 3000 mg/kg,2.0 fold
COc1ccc2cc([C@H](C)C(=O)O)ccc2c1 [NAPROXEN],Sequence Projection Score (SPS),"[1]; rat, in vivo",48*
CC(C)Cc1ccc(C(C)C(=O)O)cc1 (stereo not drawn) [IBUPROFEN],Sequence Projection Score (SPS),"[1]; rat, in vivo",33*
CS(=O)(=O)Nc1ccc([N+](=O)[O-])cc1Oc1ccccc1 [NIMESULIDE],Sequence Projection Score (SPS),"[1]; rat, in vivo",38*
"S=C=Nc1cccc2ccccc12 [1-NAPHTHYL ISOTHIOCYANATE, 1-naphthyl isothiocyanate]",Sequence Projection Score (SPS),[1]; [4],90**
C[C@]12CC[C@@H]3c4ccc(O)cc4CC[C@H]3[C@@H]1C[C@@H](O)[C@@H]2O [ESTRIOL],Sequence Projection Score (SPS),"[1]; rat, in vivo",27*
C[C@]12CCC(=O)C=C1CC[C@@H]1[C@@H]2CC[C@@]2(C)[C@H]1CC[C@]2(C)O [17-METHYLTESTOSTERONE],Sequence Projection Score (SPS),[1]; [4],36*
ClC(Cl)(Cl)Cl [CARBON TETRACHLORIDE],Sequence Projection Score (SPS),[1]; [4],50*
CS(=O)(=O)c1ccc(C2=C(c3ccccc3)C(=O)OC2)cc1 [ROFECOXIB],Sequence Projection Score (SPS),"[1]; rat, in vivo",27*
CCC(C)n1ncn(-c2ccc(N3CCN(c4ccc(OCC5COC(Cn6cncn6)(c6ccc(Cl)cc6Cl)O5)cc4)CC3)cc2)c1=O (stereo not drawn) [ITRACONAZOLE],Sequence Projection Score (SPS),"[1]; rat, in vivo",17
CC(=O)N1CCN(c2ccc(OCC3COC(Cn4ccnc4)(c4ccc(Cl)cc4Cl)O3)cc2)CC1 (stereo not drawn) [KETOCONAZOLE],Sequence Projection Score (SPS),"[1]; rat, in vivo",21
CCCCCCCCc1ccc(O)cc1 [4-OCTYLPHENOL],Sequence Projection Score (SPS),[1]; [4],22
C[C@@H]1C[C@H]2[C@@H]3CCC4=CC(=O)C=C[C@]4(C)[C@@]3(F)[C@@H](O)C[C@]2(C)[C@@]1(O)C(=O)CO [DEXAMETHASONE],Sequence Projection Score (SPS),"[1]; rat, in vivo",32*
CC[C@H](C)C(=O)O[C@H]1C[C@@H](C)C=C2C=C[C@H](C)[C@H](CC[C@@H]3C[C@@H](O)CC(=O)O3)[C@H]21 [LOVASTATIN],Sequence Projection Score (SPS),"[1]; rat, in vivo",37*
O=C(O)Cc1ccccc1Nc1c(Cl)cccc1Cl [DICLOFENAC],Sequence Projection Score (SPS),"[1]; rat, in vivo",41*
